Test results published in patent publication US20230271950A1, “ANTIBACTERIAL PICOLINAMIDE COMPOUNDS” (University of Notre Dame Du Lac, priority 2020, published 2023).
Read-outs that look alike come from different tables or passages of the source.

Legend:
[1] = test system: C. difficile; test: MIC by broth microdilution against C. difficile strains; assay type: cell-based, Clostridioides difficile
[2] = test system: MRSA (NRS70, NRS119); test: MIC against MRSA strains; assay type: cell-based, Staphylococcus aureus; details: for MIC: Staphylococcus aureus, read-out: MIC
[3] = test system: S. aureus ATCC29213; test: MIC against MSSA; assay type: cell-based, Staphylococcus aureus; details: Staphylococcus aureus
[4] = test system: E. faecium NCTC7171; test: MIC against E. faecium; assay type: cell-based, Enterococcus faecium; details: Enterococcus faecium
[5] = test system: Bacteroides fragilis; test: MIC against gut bacterium Bacteroides fragilis; assay type: cell-based; details: Bacteroides fragilis, Bacteroides fragilis strain HM-709, read-out: MIC
[6] = test system: Bifidobacterium longum; test: MIC against gut bacterium Bifidobacterium longum; assay type: cell-based; details: Bifidobacterium longum, Bifidobacterium longum strain HM-846, read-out: MIC
[7] = test system: Corynebacterium spp.; test: MIC against gut bacterium Corynebacterium spp.; assay type: cell-based; details: Corynebacterium, Corynebacterium spp. strain HM-784
[8] = test system: Fusobacterium nucleatum; test: MIC against gut bacterium Fusobacterium nucleatum; assay type: cell-based; details: Fusobacterium nucleatum, Fusobacterium nucleatum strain HM-992, read-out: MIC
[9] = test system: Lactobacillus reuteri; test: MIC against gut bacterium Lactobacillus reuteri; assay type: cell-based
[10] = test system: Lactobacillus gasseri; test: MIC against gut bacterium Lactobacillus gasseri; assay type: cell-based
[11] = test system: Veillonella sp. HM-49; test: MIC against gut bacterium Veillonella sp.; assay type: cell-based
[12] = test system: Eubacterium sp.; test: MIC against gut bacterium Eubacterium sp.; assay type: cell-based; details: Eubacterium, Eubacterium sp. strain HM-178, read-out: MIC

O=C(O)c1ccc2oc(NC(=O)c3cc(Oc4cccc(OC(F)(F)F)c4)ccn3)nc2c1 [Compound 1, Sodium 2-(4-(3-(trifluoromethoxy)phenoxy)picolinamido)benzo[d]oxazole-5-carboxylate]
64 µg/mL: MIC ([3]; MSSA ATCC 29213, Table 10, unit inferred, read-out: Activity (MIC) against S. aureus) | MIC ([3]; S. aureus ATCC29213, Table 1, read-out: MIC)
2 µg/mL: MIC ([5]; Table 1)
>16 µg/mL: MIC ([10]; Lactobacillus gasseri strain HM-644, Table 7)
0.06 µg/mL: MIC ([1]; Clostridioides difficile, BAA1803, C. difficile BAA-1803, Table 9, read-out: MIC) | MIC ([1]; Clostridioides difficile, C. difficile NR49294, Table 9, read-out: MIC) | MIC ([1]; Clostridioides difficile, C. difficile NR49302, Table 9, read-out: MIC) | MIC ([1]; Clostridioides difficile, C. difficile NR49305, Table 9, read-out: MIC) | MIC ([1]; Clostridioides difficile, C. difficile NR49318, Table 7, read-out: MIC) | MIC ([1]; Clostridioides difficile, C. difficile NR49318, Table 9, read-out: MIC) | MIC ([1]; Clostridioides difficile, C. difficile NR-13429, Table 9, read-out: MIC) | MIC ([1]; Clostridioides difficile, C. difficile NR-13431, Table 9, read-out: MIC) | MIC ([1]; Clostridioides difficile, C. difficile NR-49281, Table 9, read-out: MIC) | MIC ([1]; Clostridioides difficile, C. difficile NR-49283, Table 9, read-out: MIC) | MIC ([1]; Clostridioides difficile, C. difficile NR-49287, Table 9, read-out: MIC) | MIC ([1]; Clostridioides difficile, C. difficile NR-49297, Table 9, read-out: MIC) | MIC ([1]; Clostridioides difficile, C. difficile NR-49298, Table 9, read-out: MIC) | MIC ([1]; Clostridioides difficile, C. difficile NR-49313, Table 9, read-out: MIC) | MIC ([1]; Clostridioides difficile, C. difficile NR-49328, Table 9, read-out: MIC)
4 µg/mL: MIC ([5]; Table 7) | MIC ([8]; Table 1) | MIC ([8]; Table 7) | MIC ([9]; Lactobacillus reuteri strain HM-102, Table 7) | MIC ([9]; Limosilactobacillus reuteri, Lactobacillus reuter strain HM-102, Table 1, read-out: MIC)
≥ 128 µg/mL: MIC ([4]; NCTC7171, E. faecium NCTC 7171, Table 10, unit inferred, read-out: Activity (MIC) against E. faecium)
> 128 µg/mL: MIC ([4]; E. faecium NCTC7171, Table 1, read-out: MIC)
0.12 µg/mL: MIC ([1]; Clostridioides difficile, ATCC43255, C. difficile ATCC 43255, read-out: MIC against C. difficile) | MIC50 ([1]; Clostridioides difficile, 101 C. difficile strains)
0.25 µg/mL: MIC ([1]; Clostridioides difficile, C. difficile 23828 (FR, fidaxomicin-resistant), Table 7, read-out: MIC) | MIC ([1]; Clostridioides difficile, C. difficile 23828, clinical isolate resistant to FDX, Table 1, read-out: MIC) | MIC ([1]; Clostridioides difficile, C. difficile 23828, Table 9, read-out: MIC) | MIC ([1]; Clostridioides difficile, C. difficile 24531 (VR, vancomycin-resistant), Table 7, read-out: MIC) | MIC ([1]; Clostridioides difficile, C. difficile 24531, Table 9, read-out: MIC) | MIC ([1]; Clostridioides difficile, C. difficile 26675 (MR, metronidazole-resistant), Table 7, read-out: MIC) | MIC ([1]; Clostridioides difficile, C. difficile 26675, clinical isolate resistant to MTZ, Table 1, read-out: MIC) | MIC ([1]; Clostridioides difficile, C. difficile 26675, Table 9, read-out: MIC) | MIC ([1]; Clostridioides difficile, C. difficile HM-88, Table 9, read-out: MIC) | MIC ([1]; Clostridioides difficile, C. difficile NR-13433, Table 9, read-out: MIC) | MIC ([1]; Clostridioides difficile, C. difficile NR-32885, Table 9, read-out: MIC) | MIC ([1]; Clostridioides difficile, C. difficile NR-32890, Table 9, read-out: MIC) | MIC ([1]; Clostridioides difficile, C. difficile NR-32891, Table 9, read-out: MIC) | MIC ([1]; Clostridioides difficile, C. difficile NR-32895, Table 9, read-out: MIC) | MIC ([1]; Clostridioides difficile, C. difficile NR-32896, Table 9, read-out: MIC) | MIC ([1]; Clostridioides difficile, C. difficile NR-32903, Table 9, read-out: MIC) | MIC ([1]; Clostridioides difficile, C. difficile NR-49284, Table 9, read-out: MIC) | MIC ([1]; Clostridioides difficile, C. difficile NR-49289, Table 9, read-out: MIC) | MIC ([1]; Clostridioides difficile, C. difficile NR-49304, Table 9, read-out: MIC) | MIC ([1]; Clostridioides difficile, C. difficile NR-49306, Table 9, read-out: MIC) | MIC ([1]; Clostridioides difficile, C. difficile NR-49311, Table 9, read-out: MIC) | MIC ([1]; Clostridioides difficile, C. difficile NR-49321, Table 9, read-out: MIC) | MIC ([1]; Clostridioides difficile, C. difficile NR-49327, Table 9, read-out: MIC) | MIC90 ([1]; Clostridioides difficile, 101 C. difficile strains, read-out: MIC90 (101 strains))
0.0625 µg/mL: MIC ([1]; Clostridioides difficile, BAA1803, C. difficile BAA-1803, Table 7, read-out: MIC) | MIC ([1]; Clostridioides difficile, C. difficile NR49294, Table 7, read-out: MIC) | MIC ([1]; Clostridioides difficile, C. difficile NR49302, Table 7, read-out: MIC) | MIC ([1]; Clostridioides difficile, C. difficile NR49305, Table 7, read-out: MIC)
0.125 µg/mL: MIC ([1]; Clostridioides difficile, ATCC43255) | MIC ([1]; Clostridioides difficile, ATCC43598) | MIC ([1]; Clostridioides difficile, BAA1801) | MIC ([1]; Clostridioides difficile, BAA1804) | MIC ([1]; Clostridioides difficile, BAA1812) | MIC ([1]; Clostridioides difficile, BAA1814) | MIC ([1]; Clostridioides difficile, BAA1870)
0.03 µg/mL: MIC ([1]; Clostridioides difficile, C. difficile NR-49285, Table 9, read-out: MIC)
16 µg/mL: MIC ([2]; MRSA NRS70, Table 1) | MIC ([2]; MRSA NRS70, Table 7) | MIC ([2]; MRSA NRS119, Table 1) | MIC ([6]; Table 1) | MIC ([6]; Table 7) | MIC ([11]; SP.HM49, Veillonella sp. HM-49, Table 1, read-out: MIC) | MIC ([11]; Veillonella sp. strain HM-49, Table 7) | MIC ([12]; Table 7)
> 16 µg/mL: MIC ([10]; Lactobacillus gasseri, Lactobacillus gasser strain HM-644, Table 1, read-out: MIC)
8 µg/mL: MIC ([7]; Table 1) | MIC ([7]; Table 7) | MIC ([12]; Table 1)
128: Selectivity ([1]; MIC MRSA NRS70/MIC C. difficile ATCC43255, Table 7) | Selectivity ([1]; Table 8)
128 fold: lower activity against MRSA ([2]; MRSA versus C. difficile, Table 1)
